Experiments:
BACE1 = BACE1 (Homo sapiens, UniProt P56817); assay: In vitro enzymatic BACE FRET (fluorescence resonance energy transfer) assay; assay type: biochemical
Experimental: In Vitro Enzymatic BACE FRET (Fluorescence Resonance Energy Transfer) Assay (Enzyme Assay Data in Table 1)
The assay buffer used in this screen is 0.05 M acetate, pH 4.2, 10% DMSO final, 100 uM genapol (which is a nonionic detergent, below its Critical Micelle Concentration). […] The assay is effectively started by the addition of FRET substrate (50 nM) and the combination is incubated for one hour. The FRET assay is terminated with by addition of Tris buffer, which raises the pH to neutrality, and the fluorescence is determined. The FRET substrate is a peptide with commercially available fluorophore and quencher, on opposite sides of the BACE cleavage site. Proteolytic cleavage of the FRET substrate releases quenching of fluorescence (excitation […] and emission […]).

[1] = system: Cells stably expressing Amyloid Precursor Protein (APP); assay: In vitro BACE cell-based assay (HEK cell assay): Aβ40 in conditioned medium by sandwich ELISA; conditions: Aβ40 in conditioned medium after 24 h incubation
Experimental: In Vitro BACE Cell-Based Assay:
The cell-based assay measures inhibition or reduction of Aβ40 in conditioned medium of test compound treated cells expressing amyloid precursor protein.
Cells stably expressing Amyloid Precursor Protein (APP) were plated at a density of 40K cells/well in 96 well plates (Costar). The cells were cultivated for 24 hours at 37° C. and 5% CO2 in DMEM supplemented with 10% FBS. The test compounds were then added to cells in 10-point dose response concentrations with the starting concentration being either 100 μM or 10 μM. The compounds were diluted from stock solutions in DMSO and the final DMSO concentration of the test compounds on cells was 0.1%. After 24 h of incubation with the test compounds the supernatant conditioned media was collected and the Aβ 40 levels were determined using a sandwich ELISA. The IC50 of the compound was calculated from the percent of control or percent inhibition of Aβ 40 as a function of the concentration of the test compound.
The sandwich ELISA to detect Aβ 40 was performed in 96 well microtiter plates, which were pre-treated with goat anti-rabbit IgG (Pierce). The capture and detecting antibody pair that were used to detect Aβ 40 from cell supernatants were affinity purified pAb40 (Biosource) and biotinylated 6E10 (Signet Labs Inc.), respectively. The optimal concentration for the pAb40 antibody was 3 μg/ml in Superblock/TBS (Pierce) that was supplemented with 0.05% Tween 20 (Sigma). Optimal concentration for the detection antibody 6E10-biotinylated was 0.5 μg/ml in Superblock/TBS (Pierce) that had been supplemented with 2% normal goat serum and 2% normal mouse serum.
Cellular supernatants were incubated with the capture antibody for 3 h at 4° C., followed by 3 wash steps in TBS-tween (0.05%). The detecting antibody incubation was for 2 h at 4° C., again followed by the wash steps as described previously. The final readout of the ELISA is Time-Resolved Fluorescence (counts per minute) using Delfia reagents Streptavidin-Europium and Enhancement solutions (Perkin Elmer) and the Victor 2 multilabel counter (Perkin Elmer).
Of the compounds tested, in-the cell-based assay, data for each of Examples 33-156 is provided in Table 1 and Examples 208-246 are provided in Table 4.

BACE1, sequence (P56817 46-501, species assumed): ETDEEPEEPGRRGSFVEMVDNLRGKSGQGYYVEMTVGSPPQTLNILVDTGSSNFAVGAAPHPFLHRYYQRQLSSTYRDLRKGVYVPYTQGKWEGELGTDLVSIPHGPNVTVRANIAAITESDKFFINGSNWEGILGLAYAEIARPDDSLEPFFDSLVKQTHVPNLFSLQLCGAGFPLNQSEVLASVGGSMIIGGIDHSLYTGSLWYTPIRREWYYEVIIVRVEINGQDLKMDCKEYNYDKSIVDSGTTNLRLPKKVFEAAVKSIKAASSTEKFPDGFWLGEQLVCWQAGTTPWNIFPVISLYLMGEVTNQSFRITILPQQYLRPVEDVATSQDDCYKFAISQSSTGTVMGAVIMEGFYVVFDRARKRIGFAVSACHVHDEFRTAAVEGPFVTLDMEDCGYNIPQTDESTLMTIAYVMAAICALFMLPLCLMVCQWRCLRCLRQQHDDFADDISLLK

Structure (SMILES) | IC50 (BACE1) [nM] | IC50 ([1]; Homo sapiens, HEK293, 24 h) [nM] | IC50 [1] [nM]
C=CCC(NC(=O)C1CN(C(C)=O)CCO1)C(O)CNC1CC2(CCC2)Oc2ncc(CC(C)(C)C)cc21 [Example 155, (2R)-4-acetyl-N-((1S)-1-((1R)-2-(((4′S)-6′-(2,2-dimethylpropyl)-3′,4′-dihydrospiro[cyclobutane-1,2′-pyrano[2,3-b]pyridin]-4′-yl)amino)-1-hydroxyethyl)-3-buten-1-yl)-2-morpholinecarboxamide; (2S)-4-acetyl-N-((1S)-1-((1R)-2-(((4′S)-6′-(2,2-dimethylpropyl)-3′,4′-dihydrospiro[cyclobutane-1,2′-pyrano[2,3-b]pyridin]-4′-yl)amino)-1-hydroxyethyl)-3-buten-1-yl)-2-morpholinecarboxamide] | 49 | 60 | –
C=CC[C@H](NC(=O)c1cc(F)ccc1F)[C@H](O)CN[C@H]1CC2(CCC2)Oc2ncc(CC(C)(C)C)cc21 [Example 71, N-((1S)-1-((1R)-2-(((4′S)-6′-(2,2-dimethylpropyl)-3′,4′-dihydrospiro[cyclobutane-1,2′-pyrano[2,3-b]pyridin]-4′-yl)amino)-1-hydroxyethyl)-3-buten-1-yl)-2,5-difluorobenzamide] | 212 | 998 | –
C=CCC(NC(C)=O)C(O)CNC1CC2(CC(O)C2)Oc2ccc(Br)cc21 [Example 118, N-((1S)-1-((1R)-2-(((2s,3′S,4S)-6-bromo-3′-hydroxy-3,4-dihydrospiro[chromene-2,1′-cyclobutan]-4-yl)amino)-1-hydroxyethyl)-3-buten-1-yl)acetamide] | 6060 | – | ≥ 10000
C=CC[C@H](NC(=O)COC)[C@H](O)CN[C@H]1CC2(CCC2)Oc2ccc(CC(C)C)cc21 [Example 35, N-((1S)-1-((1R)-1-hydroxy-2-(((4S)-6-(2-methylpropyl)-3,4-dihydrospiro[chromene-2,1′-cyclobutan]-4-yl)amino)ethyl)-3-buten-1-yl)-2-(methyloxy)acetamide] | 104 | 624 | –
C=CC[C@H](NC(=O)c1ccno1)[C@H](O)CN[C@H]1CC2(CCC2)Oc2ncc(CC(C)(C)C)cc21 [Example 93, N-((1S)-1-((1R)-2-(((4′S)-6′-(2,2-dimethylpropyl)-3′,4′-dihydrospiro[cyclobutane-1,2′-pyrano[2,3-b]pyridin]-4′-yl)amino)-1-hydroxyethyl)-3-buten-1-yl)-5-isoxazolecarboxamide] | 43 | – | –
C=CC[C@H](NC(=O)[C@H]1CCCO1)[C@H](O)CN[C@H]1CC2(CCC2)Oc2ncc(CC(C)(C)C)cc21 [Example 92, (2R)-N-((1S)-1-((1R)-2-(((4′S)-6′-(2,2-dimethylpropyl)-3′,4′-dihydrospiro[cyclobutane-1,2′-pyrano[2,3-b]pyridin]-4′-yl)amino)-1-hydroxyethyl)-3-buten-1-yl)tetrahydro-2-furancarboxamide] | 84 | – | –
C=CC[C@H](NC(C)=O)[C@H](O)CN[C@H]1C[C@@]2(CC[C@@H]2O)Oc2ncc(CC(C)(C)C)cc21 [Example 53, N-((1S)-1-((1R)-2-(((1R,2S,4′S)-6′-(2,2-dimethylpropyl)-2-hydroxy-3′,4′-dihydrospiro[cyclobutane-1,2′-pyrano[2,3-b]pyridin]-4′-yl)amino)-1-hydroxyethyl)-3-buten-1-yl)acetamide] | 8220 | – | –
C=CC[C@H](NC(=O)COC)[C@H](O)CN[C@H]1CC2(CCC2)Oc2ccc(CC(C)(C)C)cc21 [Example 34, N-((1S)-1-((1R)-2-(((4S)-6-(2,2-dimethylpropyl)-3,4-dihydrospiro[chromene-2,1′-cyclobutan]-4-yl)amino)-1-hydroxyethyl)-3-buten-1-yl)-2-(methyloxy)acetamide] | 61 | – | –
C=CC[C@H](NC(C)=O)[C@H](O)CN[C@H]1C[C@]2(CC[C@H]2O)Oc2ncc(CC(C)(C)C)cc21 [Example 52, N-((1S)-1-((1R)-2-(((1S,2R,4′S)-6′-(2,2-dimethylpropyl)-2-hydroxy-3′,4′-dihydrospiro[cyclobutane-1,2′-pyrano[2,3-b]pyridin]-4′-yl)amino)-1-hydroxyethyl)-3-buten-1-yl)acetamide] | 70 | – | –
C=CC[C@H](NC(=O)COC)[C@H](O)CN[C@H]1CC2(CCC2)Oc2ncc(C[C@@H](C)C(F)(F)F)cc21 [Example 124, N-((1S)-1-((1R)-1-hydroxy-2-(((4′S)-6′-((2R)-3,3,3-trifluoro-2-methylpropyl)-3′,4′-dihydrospiro[cyclobutane-1,2′-pyrano[2,3-b]pyridin]-4′-yl)amino)ethyl)-3-buten-1-yl)-2-(methyloxy)acetamide] | 412 | – | –
C=CCC(NC(C)=O)C(O)CNC1CC2(CC(C#N)C2)Oc2ncc(CC(C)(C)C)cc21 [Example 114, N-((1S)-1-((1R)-2-(((1r,3S,4′S)-3-cyano-6′-(2,2-dimethylpropyl)-3′,4′-dihydrospiro[cyclobutane-1,2′-pyrano[2,3-b]pyridin]-4′-yl)amino)-1-hydroxyethyl)-3-buten-1-yl)acetamide] | 378 | – | –
C=CC[C@H](NC(=O)COC)[C@H](O)CNC1CC2(CCC2)Oc2ncc(CC(C)C)cc21 (stereo partly drawn) [Example 39, N-((1S)-1-((1R)-1-hydroxy-2-((6′-(2-methylpropyl)-3′,4′-dihydrospiro[cyclobutane-1,2′-pyrano[2,3-b]pyridin]-4′-yl)amino)ethyl)-3-buten-1-yl)-2-(methyloxy)acetamide] | 147 | – | –
CC=CC[C@H](NC(=O)[C@H]1CCC(=O)O1)[C@H](O)CN[C@H]1C[C@]2(C[C@H](F)C2)Oc2ncc(CC(C)(C)C)cc21 [Example 108, (2R)-N-((1S)-1-((1R)-2-(((1s,3S,4′S)-6′-(2,2-dimethylpropyl)-3-fluoro-3′,4′-dihydrospiro[cyclobutane-1,2′-pyrano[2,3-b]pyridin]-4′-yl)amino)-1-hydroxyethyl)-3-penten-1-yl)-5-oxotetrahydro-2-furancarboxamide] | – | – | 95
CC(=O)N[C@H]([C@H](O)CN[C@H]1CC2(CCC2)Oc2ncc(CC(C)(C)C)cc21)C(C)(C)C [Example 81, N-((1S)-1-((1R)-2-(((4′S)-6′-(2,2-dimethylpropyl)-3′,4′-dihydrospiro[cyclobutane-1,2′-pyrano[2,3-b]pyridin]-4′-yl)amino)-1-hydroxyethyl)-2,2-dimethylpropyl)acetamide] | 21400 | – | –
CCC[C@H](NC(C)=O)[C@H](O)CN[C@H]1C[C@@]2(CC[C@@H]2O)Oc2ncc(CC(C)(C)C)cc21 [Example 54, N-((1S)-1-((1R)-2-(((1R,2S,4′S)-6′-(2,2-dimethylpropyl)-2-hydroxy-3′,4′-dihydrospiro[cyclobutane-1,2′-pyrano[2,3-b]pyridin]-4′-yl)amino)-1-hydroxyethyl)butyl)acetamide] | 18600 | – | –
C=CC[C@H](NC(C)=O)[C@H](O)CN[C@H]1CC2(CCC2)Oc2ccc(CC(C)(C)C)cc21 [Example 33, N-((1S)-1-((1R)-2-(((4S)-6-(2,2-dimethylpropyl)-3,4-dihydrospiro[chromene-2,1′-cyclobutan]-4-yl)amino)-1-hydroxyethyl)-3-buten-1-yl)acetamide] | 212 | – | –
C=CC[C@H](NC(C)=O)[C@H](O)CN[C@H]1CC2(CCC2)Oc2ncc(C[C@H](C)C(F)(F)F)cc21 [Example 122, N-((1S)-1-((1R)-1-hydroxy-2-(((4′S)-6′-((2S)-3,3,3-trifluoro-2-methylpropyl)-3′,4′-dihydrospiro[cyclobutane-1,2′-pyrano[2,3-b]pyridin]-4′-yl)amino)ethyl)-3-buten-1-yl)acetamide] | 322 | – | –
C=CC[C@H](NC(=O)COC)[C@H](O)CN[C@H]1CC2(CCC2)Oc2ncc(C[C@H](C)C(F)(F)F)cc21 [Example 123, N-((1S)-1-((1R)-1-hydroxy-2-(((4′S)-6′-((2S)-3,3,3-trifluoro-2-methylpropyl)-3′,4′-dihydrospiro[cyclobutane-1,2′-pyrano[2,3-b]pyridin]-4′-yl)amino)ethyl)-3-buten-1-yl)-2-(methyloxy)acetamide] | 177 | – | –
C=CCC(NC(=O)COC)C(O)CNC1CC2(CC(C#N)C2)Oc2ncc(CC(C)(C)C)cc21 [Example 113, N-((1S)-1-((1R)-2-(((1r,3S,4′S)-3-cyano-6′-(2,2-dimethylpropyl)-3′,4′-dihydrospiro[cyclobutane-1,2′-pyrano[2,3-b]pyridin]-4′-yl)amino)-1-hydroxyethyl)-3-buten-1-yl)-2-(methyloxy)acetamide] | 302 | – | –
